EC50 data for 3 compounds are collected here from ChEMBL document CHEMBL1667776, “Pharmacophore-based design, synthesis, and biological evaluation of novel chloro-pyridazine piperazines as human rhinovirus (HRV-3) inhibitors” (Bioorg Med Chem Lett, 2011).

In brackets after ≈: the same amount, converted by molar mass.

For the experiment, the system named is rhinovirus B14. The experiment is described as follows: Antiviral activity against HRV-14. Type of experiment: functional, organism-based. Conditions: Rhinovirus B.
For the compound `CCOc1nc2cc(OCCC3CCN(c4ccc(C)nn4)CC3)ccc2o1`, the EC50 (in general, the concentration at which the effect is half-maximal) was determined as 0.032 µg/mL (≈ 0.0837 µM).

On to `CCOC(=O)c1ccc(OCCC2CCN(c3ccc(C)nn3)CC2)cc1` [PIRODAVIR], for which it took 0.0032 µg/mL (≈ 0.00866 µM) to reach a half-maximal effect (EC50). In the case of `Cc1cc(CCCOc2c(C)cc(-c3noc(C(F)(F)F)n3)cc2C)on1` [PLECONARIL], the EC50 was determined as 0.03 µg/mL (≈ 0.0787 µM). Compared with the last compound, the EC50 is about 9.4-fold higher.
